The assay concerns P. aeruginosa. The assay can be described thus: MIC determination by broth microdilution (MHB-CA, CLSI). The class given is cell-based. How it is done:
Determination of MIC values were performed by broth microdilution in Cation-Adjusted Mueller-Hinton broth (MHB-CA) according to the CLSI guidelines (Clinical and Laboratory Standards Institute). Polymyxin B and colistin (Sigma-Aldrich, Saint-Louis) were tested with or without Tween 80 over a range dilution from 0.12 to 128 µg/ml. The surfactant Tween 80, at a final concentration of 0.002%, prevents the binding of polymyxins to multi-array plastic panel. Actually, the use of Tween for determination of MIC of polymyxins is still debatable. MHB-CA broth and 5.10^5 CFU/ml of each tested strain were distributed in each well. Following the EUCAST breakpoints, strains were characterized as susceptible or resistant to polymyxins.
For orientation: In broth dilution the organism is exposed to a series of concentrations in liquid medium.

Where [1] appears, read: strain ATCC 27853, With Tween80.
The mark [2] stands for this setting: strain ATCC 27853, Without Tween80.

Consider colistin, for which the MIC runs as follows: (strain 38J8, With Tween80) 0.5 µg/mL; (strain 38J8, Without Tween80) 2 µg/mL; under setting [1], 0.12 µg/mL; under setting [2], 0.5 µg/mL; (strain C111, With Tween80) 0.12 µg/mL; (strain C111, Without Tween80) 1 µg/mL. In addition, the MIC runs as follows: (strain C131, With Tween80) 0.25 µg/mL; (strain C131, Without Tween80) 1 µg/mL; (strain C133, With Tween80) 0.5 µg/mL; (strain C133, Without Tween80) 2 µg/mL.
Turning to polymyxin B, the MIC was 0.25 µg/mL (strain 38J8, With Tween80); 1 µg/mL (strain 38J8, Without Tween80); 0.12 µg/mL under setting [1]; 0.5 µg/mL under setting [2]; 0.25 µg/mL (strain C111, With Tween80); 1 µg/mL (strain C111, Without Tween80). Also, the MIC (strain C131, With Tween80) worked out at 0.25 µg/mL; the minimum inhibitory concentration (MIC) (strain C131, Without Tween80) was 1 µg/mL; the MIC (strain C133, With Tween80) was 0.5 µg/mL; the MIC (strain C133, Without Tween80) is 1 µg/mL.

Broadly, the MIC is the lowest concentration found to suppress growth. Lower therefore signals greater potency.
